Results from patent US9267949B2, “Alkylamino BODIPY dyes as selective fluorescent probes for proteins and mouse embryonic stem cells” (National University of Singapore, priority 2011, dated 2016).

Assays:
[1] = Spectroscopic properties of the BDM library (absorbance and emission maxima); type: physicochemical
[2] = Quantum yield measurements; type: physicochemical; conditions: referred to Rhodamine B in EtOH, excitation 510 nm, emission integrated 540-800 nm
Method: Quantum yields were calculated by measuring the integrated emission area of the fluorescent spectra, and referring them to the area measured for Rhodamine B in EtOH after excitation at 510 nm (ΦRho-B=0.70). Quantum yields for the BDM products were then calculated using equation below, where F represents the area of fluorescent emission, n is reflective index of the solvent, and Abs is absorbance at excitation wavelength selected for standards and samples. Emission was integrated from 540 nm to 800 nm.

SMILES	λmax (ABS) [1]	λmax (EM) [1]	φ (quantum yield) [2]
COc1cc(Cl)cc(/C=C/C2=[N+]3C(=C(CCN)c4cccn4[B-]3(F)F)C(C)=C2)c1O [BDM-275]	562 nm	–	0.05
CC1=CC(/C=C/c2ccc(Oc3ccc(Cl)cc3)cc2)=[N+]2C1=C(CCN)c1cccn1[B-]2(F)F [BDM-277]	559 nm	574 nm	0.59
COc1cc(Cl)cc(/C=C/C2=[N+]3C(=C(CCN)c4cccn4[B-]3(F)F)C(C)=C2)c1OC [BDM-282]	558 nm	565 nm	0.19
CC1=CC(/C=C/c2ccc(Oc3cccc(Cl)c3)cc2)=[N+]2C1=C(CCN)c1cccn1[B-]2(F)F [BDM-290]	558 nm	574 nm	0.36
COc1cccc(Oc2ccc(/C=C/C3=[N+]4C(=C(CCN)c5cccn5[B-]4(F)F)C(C)=C3)cc2)c1 [BDM-298]	559 nm	568 nm	0.32
CC1=CC(/C=C/c2ccc(Oc3ccc(Cl)c(Cl)c3)cc2)=[N+]2C1=C(CCN)c1cccn1[B-]2(F)F [BDM-299]	555 nm	563 nm	0.27
CC1=CC(/C=C/c2ccc(Oc3ccc(C)cc3)cc2)=[N+]2C1=C(CCN)c1cccn1[B-]2(F)F [BDM-300]	562 nm	579 nm	0.44
COc1cc2ccccc2c(/C=C/C2=[N+]3C(=C(CCN)c4cccn4[B-]3(F)F)C(C)=C2)c1OC [BDM-301]	563 nm	586 nm	0.41
COc1cc(F)c(/C=C/C2=[N+]3C(=C(CCN)c4cccn4[B-]3(F)F)C(C)=C2)cc1OC [BDM-305]	567 nm	587 nm	0.25
COc1cc(/C=C/C2=[N+]3C(=C(CCN)c4cccn4[B-]3(F)F)C(C)=C2)cc(O)c1OC [BDM-307]	564 nm	580 nm	0.07
CC1=CC(/C=C/c2ccc(Oc3cc(Cl)cc(Cl)c3)cc2)=[N+]2C1=C(CCN)c1cccn1[B-]2(F)F [BDM-308]	556 nm	567 nm	0.19
COc1ccc(/C=C/C2=[N+]3C(=C(CCN)c4cccn4[B-]3(F)F)C(C)=C2)c(C)c1C [BDM-310]	566 nm	600 nm	0.42
CC1=CC(/C=C/c2ccc(F)c(Oc3ccccc3)c2)=[N+]2C1=C(CCN)c1cccn1[B-]2(F)F [BDM-311]	556 nm	565 nm	0.21
CCOc1ccc(/C=C/C2=[N+]3C(=C(CCN)c4cccn4[B-]3(F)F)C(C)=C2)c(OCC)c1 [BDM-316]	572 nm	610 nm	0.46
CCOc1c(/C=C/C2=[N+]3C(=C(CCN)c4cccn4[B-]3(F)F)C(C)=C2)cccc1OC [BDM-320]	558 nm	569 nm	0.21
CC1=CC(/C=C/c2ccc(Oc3ccc(F)cc3)cc2)=[N+]2C1=C(CCN)c1cccn1[B-]2(F)F [BDM-322]	559 nm	577 nm	0.15
COc1c(/C=C/C2=[N+]3C(=C(CCN)c4cccn4[B-]3(F)F)C(C)=C2)cc(C(C)(C)C)cc1C(C)(C)C [BDM-325]	557 nm	573 nm	0.47
CC1=CC(/C=C/c2cc(OCc3ccccc3)cc(OCc3ccccc3)c2)=[N+]2C1=C(CCN)c1cccn1[B-]2(F)F [BDM-331]	554 nm	566 nm	0.65
CC1=CC(/C=C/c2c3ccccc3c(C)c3ccccc23)=[N+]2C1=C(CCN)c1cccn1[B-]2(F)F [BDM-340]	534 nm	541 nm	0.11
CC1=CC(/C=C/c2ccccc2Oc2ccc(F)cc2)=[N+]2C1=C(CCN)c1cccn1[B-]2(F)F [BDM-341]	556 nm	570 nm	0.37
CC1=CC(/C=C/c2cc(C)c(C)cc2C)=[N+]2C1=C(CCN)c1cccn1[B-]2(F)F [BDM-343]	559 nm	577 nm	0.28
COc1ccc(/C=C/C2=[N+]3C(=C(CCN)c4cccn4[B-]3(F)F)C(C)=C2)c(OC)c1C [BDM-347]	566 nm	591 nm	0.57
CC1=CC(/C=C/c2cccc(N3CCCCC3)c2[N+](=O)[O-])=[N+]2C1=C(CCN)c1cccn1[B-]2(F)F [BDM-356]	573 nm	682 nm	0.03
CC1=CC(/C=C/c2cccc(N3CCCC3)c2[N+](=O)[O-])=[N+]2C1=C(CCN)c1cccn1[B-]2(F)F [BDM-357]	585 nm	687 nm	0.04
CC1=CC(/C=C/c2ccc(-c3ccc(Cl)cc3)o2)=[N+]2C1=C(CCN)c1cccn1[B-]2(F)F [BDM-371]	590 nm	630 nm	0.03

More lines, now with the values ahead:

λmax (ABS) [1]	λmax (EM) [1]	φ (quantum yield) [2]	SMILES
562 nm	577 nm	0.46	COc1ccc(/C=C/C2=[N+]3C(=C(CCN)c4cccn4[B-]3(F)F)C(C)=C2)cc1Cl [BDM-274]
554 nm	567 nm	0.28	COc1cccc(/C=C/C2=[N+]3C(=C(CCN)c4cccn4[B-]3(F)F)C(C)=C2)c1Cl [BDM-281]
556 nm	567 nm	0.15	CC1=CC(/C=C/c2cccc(O)c2Cl)=[N+]2C1=C(CCN)c1cccn1[B-]2(F)F [BDM-283]
594 nm	622 nm	0.03	CC1=CC(/C=C/c2ccc(-c3cccc(Cl)c3)o2)=[N+]2C1=C(CCN)c1cccn1[B-]2(F)F [BDM-284]
544 nm	561 nm	0.51	CC1=CC(/C=C/c2c(C)cccc2Cl)=[N+]2C1=C(CCN)c1cccn1[B-]2(F)F [BDM-285]
559 nm	570 nm	0.26	CC1=CC(/C=C/c2ccc(C)c(Cl)c2)=[N+]2C1=C(CCN)c1cccn1[B-]2(F)F [BDM-289]
555 nm	566 nm	0.31	CC1=CC(/C=C/c2cccc(I)c2)=[N+]2C1=C(CCN)c1cccn1[B-]2(F)F [BDM-303]
557 nm	568 nm	0.18	COc1cc(/C=C/C2=[N+]3C(=C(CCN)c4cccn4[B-]3(F)F)C(C)=C2)ccc1F [BDM-312]
556 nm	570 nm	0.10	COc1ccc(/C=C/C2=[N+]3C(=C(CCN)c4cccn4[B-]3(F)F)C(C)=C2)cc1F [BDM-314]
563 nm	576 nm	0.11	CC1=CC(/C=C/c2cc(F)ccc2O)=[N+]2C1=C(CCN)c1cccn1[B-]2(F)F [BDM-318]
556 nm	570 nm	0.44	CCOc1cccc(/C=C/C2=[N+]3C(=C(CCN)c4cccn4[B-]3(F)F)C(C)=C2)c1 [BDM-323]
554 nm	565 nm	0.71	CC1=CC(/C=C/c2ccc(OC(F)F)cc2)=[N+]2C1=C(CCN)c1cccn1[B-]2(F)F [BDM-326]
552 nm	562 nm	0.61	CC1=CC(/C=C/c2ccc3c(c2)OC(F)(F)O3)=[N+]2C1=C(CCN)c1cccn1[B-]2(F)F [BDM-332]
557 nm	575 nm	0.30	CSc1ccccc1/C=C/C1=[N+]2C(=C(CCN)c3cccn3[B-]2(F)F)C(C)=C1 [BDM-333]
565 nm	591 nm	0.78	COc1ccc(/C=C/C2=[N+]3C(=C(CCN)c4cccn4[B-]3(F)F)C(C)=C2)cc1C [BDM-335]
560 nm	577 nm	0.58	CCOc1ccccc1/C=C/C1=[N+]2C(=C(CCN)c3cccn3[B-]2(F)F)C(C)=C1 [BDM-336]
551 nm	564 nm	0.22	CC1=CC(/C=C/c2cccc(OC(F)(F)C(F)F)c2)=[N+]2C1=C(CCN)c1cccn1[B-]2(F)F [BDM-345]
556 nm	571 nm	0.14	COc1ccc(/C=C/C2=[N+]3C(=C(CCN)c4cccn4[B-]3(F)F)C(C)=C2)cc1[N+](=O)[O-] [BDM-350]
559 nm	574 nm	0.83	COc1ccc(/C=C/C2=[N+]3C(=C(CCN)c4cccn4[B-]3(F)F)C(C)=C2)c(F)c1 [BDM-359]
553 nm	564 nm	0.51	CC1=CC(/C=C/c2ccc(SC(F)(F)F)cc2)=[N+]2C1=C(CCN)c1cccn1[B-]2(F)F [BDM-363]
549 nm	563 nm	0.24	CC1=CC(/C=C/c2ccccc2OC(F)(F)F)=[N+]2C1=C(CCN)c1cccn1[B-]2(F)F [BDM-365]
554 nm	570 nm	0.30	CC1=CC(/C=C/c2ccsc2)=[N+]2C1=C(CCN)c1cccn1[B-]2(F)F [BDM-369]
